Measurements from PubChem BioAssay AID256 (DTP/NCI, 2004).
Values joined by “and” are separate entries in the source; they are usually repeats but may differ in a detail not shown here. Identical values can stand only once. Inconclusive results and toxic doses are left out. The calls were made as follows: active = survival T/C of 150% or more; inactive = T/C below 125% in these data.

Test system: CD2F1 mice, L1210 leukemia ip, survival T/C
Assay: NCI In Vivo Anticancer Drug Screen. Data for tumor model L1210 Leukemia (intraperitoneal) in CD2F1 (CDF1) mice
Settings: endpoint: mean survival time, higher = longer survival
Procedure, shortened: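 Transplantable tumor in mice; compound-treated vs vehicle-treated groups. Read-out = treated/control ratio of the measured endpoint.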

[1] = dose: 100.0 mg/kg/injection, schedule: Q01DX001 (ip), vehicle: saline with Tween-80
[2] = dose: 200.0 mg/kg/injection, schedule: Q01DX001 (ip), vehicle: saline with Tween-80
[3] = dose: 100.0 mg/kg/injection, schedule: Q01DX009 (ip), vehicle: saline with Tween-80
[4] = dose: 200.0 mg/kg/injection, schedule: Q01DX009 (ip), vehicle: saline with Tween-80
[5] = dose: 400.0 mg/kg/injection, schedule: Q01DX009 (ip), vehicle: saline with Tween-80
[6] = dose: 100.0 mg/kg/injection, schedule: Q01DX009 (ip), vehicle: saline
[7] = dose: 200.0 mg/kg/injection, schedule: Q01DX009 (ip), vehicle: saline
[8] = dose: 6.25 mg/kg/injection, schedule: Q01DX001 (ip), vehicle: saline with Tween-80
[9] = dose: 12.5 mg/kg/injection, schedule: Q01DX001 (ip), vehicle: saline with Tween-80
[10] = dose: 25.0 mg/kg/injection, schedule: Q01DX001 (ip), vehicle: saline with Tween-80
[11] = dose: 25.0 mg/kg/injection, schedule: Q04DX003 (ip), vehicle: saline with Tween-80
[12] = dose: 50.0 mg/kg/injection, schedule: Q04DX003 (ip), vehicle: saline with Tween-80
[13] = dose: 100.0 mg/kg/injection, schedule: Q04DX003 (ip), vehicle: saline with Tween-80
[14] = dose: 50.0 mg/kg/injection, schedule: Q01DX009 (ip), vehicle: saline with Tween-80
[15] = dose: 100.0 mg/kg/injection, schedule: Q04DX002 (ip), vehicle: saline with Tween-80
[16] = dose: 200.0 mg/kg/injection, schedule: Q04DX002 (ip), vehicle: saline with Tween-80
[17] = dose: 200.0 mg/kg/injection, schedule: Q04DX003 (ip), vehicle: saline with Tween-80
[18] = dose: 400.0 mg/kg/injection, schedule: Q04DX003 (ip), vehicle: saline with Tween-80
[19] = dose: 100.0 mg/kg/injection, schedule: Q04DX003 (ip), vehicle: saline
[20] = dose: 200.0 mg/kg/injection, schedule: Q04DX003 (ip), vehicle: saline
[21] = dose: 400.0 mg/kg/injection, schedule: Q04DX003 (ip), vehicle: saline
[22] = dose: 50.0 mg/kg/injection, schedule: Q01DX001 (ip), vehicle: saline
[23] = dose: 100.0 mg/kg/injection, schedule: Q01DX001 (ip), vehicle: saline

Measured: T/C

CC1=C(C)C(C(=O)O)C1C(=O)O (stereo not drawn)
inactive: [1] 88 % of control | [2] 97 % of control

COc1ccccc1C(O)(c1ccccc1OC)c1c(OC)cccc1OC
inactive: [3] 97 % of control | [4] 93 % of control | [5] 88 % of control

Nc1nc(Cl)c2ncn(C3CC(O)C(CO)C3)c2n1 (stereo not drawn)
inactive: [6] 106 % of control | [7] 106 % of control

NNC(=O)Nc1ccccc1
inactive: [8] 102 % of control | [9] 102 % of control | [10] 97 % of control

CC(C)(C)NC/C(=C\c1ccccc1)C(=O)c1ccccc1
inactive: [11] 109 % of control | [12] 100 % of control | [13] 117 % of control

C=CCc1ccc(OC(=O)Nc2ccc(C)c([N+](=O)[O-])c2)c(OC)c1
inactive: dose: 12.5 mg/kg/injection, schedule: Q01DX009 (ip), vehicle: saline with Tween-80 98 % of control | dose: 25.0 mg/kg/injection, schedule: Q01DX009 (ip), vehicle: saline with Tween-80 103 % of control | [14] 98 % of control | [4] 88 % of control

Cc1cc2c3ccc(C)[n+](C)c3ccc2n1C
inactive: dose: 1.19 mg/kg/injection, schedule: Q01DX001 (ip), vehicle: saline 103 % of control | dose: 2.37 mg/kg/injection, schedule: Q01DX001 (ip), vehicle: saline 109 % of control | dose: 4.75 mg/kg/injection, schedule: Q01DX001 (ip), vehicle: saline 97 % of control

Cc1c2c(c(O)c3c(O)cccc13)C(=O)C1(O)C(O)=C(C(N)=O)C(=O)CC1C2 (stereo not drawn)
inactive: dose: 75.0 mg/kg/injection, schedule: Q01DX001 (ip), vehicle: other 92 % of control | dose: 150.0 mg/kg/injection, schedule: Q01DX001 (ip), vehicle: other 94 % of control | dose: 300.0 mg/kg/injection, schedule: Q01DX001 (ip), vehicle: other 102 % of control

NC(=S)Nc1ccccc1[N+](=O)[O-]
inactive: [12] 103 % of control and 104 % of control | [1] 101 % of control | [15] 95 % of control | [13] 97 % of control and 101 % of control | [2] 102 % of control | [16] 93 % of control | [17] 97 % of control and 111 % of control

COc1cc(OC)c(NC(=O)Nc2ccc(C)c([N+](=O)[O-])c2)cc1Cl
inactive: [14] 98 % of control | [3] 90 % of control | [4] 94 % of control

CCCCN1C(=O)C=CC1=O
inactive: dose: 0.78 mg/kg/injection, schedule: Q01DX009 (ip), vehicle: saline with Tween-80 94 % of control | dose: 1.56 mg/kg/injection, schedule: Q01DX009 (ip), vehicle: saline with Tween-80 105 % of control | dose: 3.12 mg/kg/injection, schedule: Q01DX009 (ip), vehicle: saline with Tween-80 91 % of control

COc1ccc2c(c1)CCC1(C)C2=CC(=O)/C1=C\[O-].COc1ccc2c(c1)CCC1(C)C2=CC(=O)/C1=C\[O-].[Cu+2] (stereo not drawn)
inactive: [11] 96 % of control | [12] 87 % of control | [13] 86 % of control

CCCCCCCC(=O)Nc1cc(C)ccc1C
inactive: [3] 94 % of control | [13] 98 % of control | [4] 94 % of control | [17] 97 % of control | [5] 98 % of control | [18] 98 % of control

O=c1c(Cl)c2cc3c(cc2c2ccccc12)nc1ccccc1n3Cc1ccc([N+](=O)[O-])cc1
inactive: [19] 95 % of control | [20] 106 % of control | [21] 91 % of control

CC1=NN(c2cc(Cl)c(S(=O)(=O)O)cc2Cl)C(=O)C1
inactive: [3] 92 % of control | [4] 92 % of control | [5] 86 % of control

CN(C)Cc1ccc2ccccc2c1
inactive: [22] 102 % of control | [23] 97 % of control

O=C(Nc1ccccc1C(F)(F)F)Nc1cccc2ccccc12
inactive: [13] 95 % of control | [17] 104 % of control | [18] 95 % of control

COc1cc(-c2nc(-c3ccc(N=Cc4ccc(N(CCCOS(C)(=O)=O)CCCOS(C)(=O)=O)cc4)cc3)cs2)ccc1OCc1ccccc1
inactive: [1] 91 % of control | [2] 95 % of control | [4] 86 % of control | dose: 400.0 mg/kg/injection, schedule: Q01DX001 (ip), vehicle: saline with Tween-80 89 % of control

Cc1cc(O)c(N=Nc2cccc(C(=O)O)c2)cc1C
inactive: dose: 50.0 mg/kg/injection, schedule: Q01DX009 (ip), vehicle: saline 107 % of control | [6] 96 % of control | [7] 103 % of control

N#CC1(C#N)OC(C#N)(C#N)c2ccccc21
inactive: [8] 102 % of control | [9] 98 % of control | [10] 98 % of control

O=C(CCC(=O)c1cccc([N+](=O)[O-])c1)NNc1ccc([N+](=O)[O-])cc1[N+](=O)[O-]
inactive: [13] 98 % of control | [17] 98 % of control | [18] 102 % of control

S=C(NCCCCCNC(=S)Nc1ccccc1)Nc1ccccc1
inactive: dose: 100.0 mg/kg/injection, schedule: Q04DX003 (ip), vehicle: acetone 96 % of control | dose: 200.0 mg/kg/injection, schedule: Q04DX003 (ip), vehicle: acetone 108 % of control

NC(=O)C1=C2CCCc3cccc(c32)C1=O
inactive: [3] 94 % of control | [13] 99 % of control | [4] 94 % of control | [17] 100 % of control | [5] 97 % of control | [18] 87 % of control

[C-]#[N+]C(C)(CC)c1ccccc1 (stereo not drawn)
inactive: dose: 35.0 mg/kg/injection, schedule: Q01DX009 (ip), vehicle: saline with Tween-80 105 % of control

CNC(=O)c1cccc2ccccc12
inactive: [22] 103 % of control | [23] 100 % of control | dose: 200.0 mg/kg/injection, schedule: Q01DX001 (ip), vehicle: saline 97 % of control | dose: 400.0 mg/kg/injection, schedule: Q01DX001 (ip), vehicle: saline 95 % of control

CN(C)C(=O)C(=O)C1C=Cc2ccccc21 (stereo not drawn)
inactive: [3] 98 % of control | [4] 103 % of control | [5] 93 % of control

COc1cc(Cl)cc(OC)c1
inactive: [3] 100 % of control | [4] 104 % of control | [5] 103 % of control

CCCCOc1nc(-c2ccncc2)nc(N(C)C)n1
inactive: dose: 16.0 mg/kg/injection, schedule: Q04DX002 (ip), vehicle: saline 92 % of control | dose: 31.0 mg/kg/injection, schedule: Q04DX002 (ip), vehicle: saline 92 % of control | dose: 63.0 mg/kg/injection, schedule: Q04DX002 (ip), vehicle: saline 100 % of control | dose: 100.0 mg/kg/injection, schedule: Q01DX002 (ip), vehicle: saline 100 % of control

CCOc1ccccc1OC(=O)Nc1ccccc1OC
inactive: [15] 106 % of control | [16] 88 % of control | dose: 400.0 mg/kg/injection, schedule: Q04DX002 (ip), vehicle: saline with Tween-80 100 % of control

O=c1[nH]c2ncnc(N=Nc3ncnc4[nH]c(=O)[nH]c34)c2[nH]1
inactive: dose: 12.5 mg/kg/injection, schedule: Q01DX005 (ip), vehicle: distilled water + Tween-80 98 % of control | dose: 25.0 mg/kg/injection, schedule: Q01DX005 (ip), vehicle: distilled water + Tween-80 89 % of control | dose: 50.0 mg/kg/injection, schedule: Q01DX005 (ip), vehicle: distilled water + Tween-80 91 % of control | dose: 100.0 mg/kg/injection, schedule: Q01DX005 (ip), vehicle: distilled water + Tween-80 94 % of control | dose: 200.0 mg/kg/injection, schedule: Q01DX005 (ip), vehicle: distilled water + Tween-80 96 % of control

CNC(C)COc1ccc(O)cc1 (stereo not drawn)
inactive: [6] 110 % of control | [19] 108 % of control | [7] 110 % of control | [20] 104 % of control | [21] 114 % of control

O=[N+]([O-])c1ccc(CSCc2ccc([N+](=O)[O-])cc2)cc1
inactive: dose: 50.0 mg/kg/injection, schedule: Q04DX003 (ip), vehicle: Klucel (hydroxypropylcellulose) (HPC) 98 % of control | dose: 100.0 mg/kg/injection, schedule: Q04DX003 (ip), vehicle: Klucel (hydroxypropylcellulose) (HPC) 92 % of control | dose: 200.0 mg/kg/injection, schedule: Q04DX003 (ip), vehicle: Klucel (hydroxypropylcellulose) (HPC) 97 % of control
